Results taken from patent publication US12186283B2, “Bismuth-thiol compositions and methods of use” (Microbion Corporation, priority 2018, dated 2025).
In brackets after ≈: the same amount, converted by molar mass.

Experiments:
[1] = test system: Burkholderia spp. (B. cepacia complex); assay: MIC against CF isolates (Example 5); format: cell-based; settings: Table 4A
E. coli ATCC 25922 = settings: control strain ATCC 25922 E. coli; per CLSI M100-S24 or provided by Microbion; cited from earlier work
S. aureus ATCC 29213 [2] = settings: control strain ATCC 29213 S. aureus; per CLSI M100-S24 or provided by Microbion; cited from earlier work
[3] = test system: vancomycin-intermediate Staphylococcus aureus (VISA); assay: Broth microdilution MIC (Example 12)
Escherichia coli [4] = settings: E. coli ATCC 25922, QC organism; cited from earlier work
S. aureus ATCC 29213 [5] = assay: Broth microdilution MIC, ATCC QC organism (Example 12); format: cell-based, Staphylococcus aureus; settings: S. aureus ATCC 29213, QC organism
Description: The in vitro activity of BisEDT and two additional bismuth-thiol investigational agents (MB-2B and MB-6) was determined for isolates of Escherichia coli, Klebsiella pneumoniae, Pseudomonas aeruginosa and Acinetobacter baumannii characterized for extended-spectrum β-lactamases (ESBL) and/or carbapenem resistance. In addition, vancomycin-intermediate Staphylococcus aureus (VISA) were evaluated. The majority of the isolates tested in the current study were multidrug-resistant (MDR) as defined by resistance to at least three different antibiotic classes. Susceptibility to the investigational compounds and relevant comparators was determined by broth microdilution conducted in accordance with guidelines from the Clinical and Laboratory Standards Institute (CLSI; 2,3).

Pseudomonas aeruginosa [6] = settings: P. aeruginosa ATCC 27853, QC organism; cited from earlier work
Pseudomonas aeruginosa [7] = assay: Broth microdilution MIC (Example 12)
Escherichia coli [8] = assay: Broth microdilution MIC (Example 12)
S. aureus ATCC 29213 [9] = settings: S. aureus ATCC 29213, QC organism; cited from earlier work
Klebsiella pneumoniae = assay: Broth microdilution MIC (Example 12)
Acinetobacter baumannii = assay: Broth microdilution MIC (Example 12)

In the case of NCC[C@H](O)C(=O)N[C@@H]1C[C@H](N)[C@@H](O[C@H]2O[C@H](CN)[C@@H](O)[C@H](O)[C@H]2O)[C@H](O)[C@H]1O[C@H]1O[C@H](CO)[C@@H](O)[C@H](N)[C@H]1O [Amikacin], the MIC ([1]; strain AU197, B. cenocepacia (B cepacia complex)) is reported as > 64 µg/mL, the MIC ([1]; strain BC5b, B. multivorans (B cepacia complex)) is reported as > 64 µg/mL and the MIC ([1]; strain BC15, B. cenocepacia (B cepacia complex)) is reported as > 64 µg/mL. For the same compound, the MIC ([1]; strain BC17, B. cepacia (B cepacia complex)) was > 64 µg/mL, the “Expected MIC: acceptable range” value (E. coli ATCC 25922) was 0.5 to 4 µg/mL and the “Expected MIC: goal” value (E. coli ATCC 25922) was 1 to 2 µg/mL. The “Expected MIC: acceptable range” value (S. aureus ATCC 29213 [2]) was 1 to 4 µg/mL and the “Expected MIC: goal” value (S. aureus ATCC 29213 [2]) was 2 µg/mL.
With C[C@H]1COc2c(N3CCN(C)CC3)c(F)cc3c(=O)c(C(=O)O)cn1c23 [LVX] the MIC ([3]; Staphylococcus aureus NRS 1 (hVISA)) was 4 µg/mL (≈ 11.1 µM), the MIC ([3]; Staphylococcus aureus NRS 2) was 4 µg/mL (≈ 11.1 µM) and the MIC ([3]; Staphylococcus aureus NRS 3) was >8 µg/mL. It also gave an MIC ([3]; Staphylococcus aureus NRS 4) of 4 µg/mL (≈ 11.1 µM), an MIC ([3]; Staphylococcus aureus NRS 13) of 0.12 µg/mL (≈ 0.332 µM) and an MIC ([3]; Staphylococcus aureus NRS 18) of 4 µg/mL (≈ 11.1 µM). For the same compound, the MIC ([3]; Staphylococcus aureus NRS 22) was 8 µg/mL (≈ 22.1 µM), the MIC ([3]; Staphylococcus aureus NRS 24 (hVISA)) was >8 µg/mL and the MIC ([3]; Staphylococcus aureus NRS 27) was 8 µg/mL (≈ 22.1 µM). The “MIC, QC range” value (Escherichia coli [4]) was “(0.008-0.06) μg/mL”, the MIC (S. aureus ATCC 29213 [5]) was 0.06 µg/mL (≈ 0.166 µM) and the “MIC, QC range” value (Pseudomonas aeruginosa [6]) was “(0.5-4) μg/mL”. The MIC (Pseudomonas aeruginosa [7]; P. aeruginosa ATCC 27853, QC organism) was 0.5 µg/mL (≈ 1.38 µM), the MIC (Pseudomonas aeruginosa [7]; Pseudomonas aeruginosa CDC 230, VIM/OXA) was 8 µg/mL (≈ 22.1 µM) and the MIC (Pseudomonas aeruginosa [7]; Pseudomonas aeruginosa CDC 231, KPC/OXA) was >8 µg/mL. For the same compound, the MIC (Pseudomonas aeruginosa [7]; Pseudomonas aeruginosa CDC 241, IMP/OXA) was 8 µg/mL (≈ 22.1 µM), the MIC (Pseudomonas aeruginosa [7]; Pseudomonas aeruginosa CDC 246, NDM/OXA) was >8 µg/mL and the MIC (Pseudomonas aeruginosa [7]; Pseudomonas aeruginosa CDC 250, NDM/OXA) was >8 µg/mL. The MIC (Pseudomonas aeruginosa [7]; Pseudomonas aeruginosa CDC 356, KPC) was 0.12 µg/mL (≈ 0.332 µM), the MIC (Pseudomonas aeruginosa [7]; Pseudomonas aeruginosa CDC 439, IMP) was 8 µg/mL (≈ 22.1 µM) and the MIC (Pseudomonas aeruginosa [7]; Pseudomonas aeruginosa CDC 444, VIM) was 8 µg/mL (≈ 22.1 µM). The MIC (Pseudomonas aeruginosa [7]; Pseudomonas aeruginosa CDC 457, VIM) was >8 µg/mL, the MIC (Pseudomonas aeruginosa [7]; Pseudomonas aeruginosa CDC 516, KPC/AmpC) was 0.25 µg/mL (≈ 0.692 µM) and the MIC (Pseudomonas aeruginosa [7]; Pseudomonas aeruginosa CDC 518, KPC/AmpC) was >8 µg/mL. For the same compound, the MIC (Escherichia coli [8]; E. coli ATCC 25922, QC organism) was ≤0.008 µg/mL, the MIC (Escherichia coli [8]; E. coli ATCC 35218, QC organism) was ≤0.008 µg/mL and the MIC (Escherichia coli [8]; Escherichia coli ATCC 35218, ESBL) was ≤0.008 µg/mL. For the same compound, the MIC (Escherichia coli [8]; Escherichia coli ATCC BAA-2471, NDM) was >8 µg/mL, the MIC (Escherichia coli [8]; Escherichia coli CDC 114, ESBL/KPC) was 4 µg/mL (≈ 11.1 µM) and the MIC (Escherichia coli [8]; Escherichia coli CDC 118, ESBL/NDM) was 8 µg/mL (≈ 22.1 µM). For the same compound, the MIC (Escherichia coli [8]; Escherichia coli CDC 435, NDM) was >8 µg/mL, the MIC (Escherichia coli [8]; Escherichia coli CDC 451, KPC) was >8 µg/mL and the MIC (Escherichia coli [8]; Escherichia coli CDC 503, ESBL/NDM) was >8 µg/mL. The MIC (Escherichia coli [8]; Escherichia coli MMX 5745, KPC) was 8 µg/mL (≈ 22.1 µM), the MIC (Escherichia coli [8]; Escherichia coli MMX 5755, ESBL) was 8 µg/mL (≈ 22.1 µM) and the MIC (Escherichia coli [8]; Escherichia coli MMX 5756, ESBL) was 4 µg/mL (≈ 11.1 µM). For the same compound, the MIC (Escherichia coli [8]; Escherichia coli MMX 5758, ESBL) was 8 µg/mL (≈ 22.1 µM), the “MIC, QC range” value (S. aureus ATCC 29213 [9]) was “(0.06-0.5) μg/mL” and the MIC (Klebsiella pneumoniae; K. pneumoniae ATCC BAA-1705, QC organism) was >8 µg/mL. The MIC (Klebsiella pneumoniae; Klebsiella pneumoniae ATCC BAA-1705, ESBL/KPC) was >8 µg/mL, the MIC (Klebsiella pneumoniae; Klebsiella pneumoniae CDC 112, KPC) was 4 µg/mL (≈ 11.1 µM) and the MIC (Klebsiella pneumoniae; Klebsiella pneumoniae CDC 113, ESBL/KPC) was 4 µg/mL (≈ 11.1 µM). The MIC (Klebsiella pneumoniae; Klebsiella pneumoniae CDC 115, ESBL/KPC) was >8 µg/mL, the MIC (Klebsiella pneumoniae; Klebsiella pneumoniae CDC 120, ESBL/KPC) was >8 µg/mL and the MIC (Klebsiella pneumoniae; Klebsiella pneumoniae CDC 126, ESBL/KPC) was 0.015 µg/mL (≈ 0.0415 µM). For the same compound, the MIC (Klebsiella pneumoniae; Klebsiella pneumoniae CDC 129, ESBL/KPC) was >8 µg/mL, the MIC (Klebsiella pneumoniae; Klebsiella pneumoniae CDC 135, ESBL/VIM) was >8 µg/mL and the MIC (Klebsiella pneumoniae; Klebsiella pneumoniae CDC 138, ESBL/NDM) was >8 µg/mL. For the same compound, the MIC (Klebsiella pneumoniae; Klebsiella pneumoniae CDC 158, ESBL/NDM/OXA) was 4 µg/mL (≈ 11.1 µM), the MIC (Klebsiella pneumoniae; Klebsiella pneumoniae MMX 9029, ESBL) was 0.12 µg/mL (≈ 0.332 µM) and the MIC (Acinetobacter baumannii; Acinetobacter baumannii CDC 273, ESBL/OXA) was >8 µg/mL. The MIC (Acinetobacter baumannii; Acinetobacter baumannii CDC 274, ESBL/OXA) was 8 µg/mL (≈ 22.1 µM), the MIC (Acinetobacter baumannii; Acinetobacter baumannii CDC 275, ESBL/OXA) was 4 µg/mL (≈ 11.1 µM) and the MIC (Acinetobacter baumannii; Acinetobacter baumannii CDC 277, ESBL/OXA) was 8 µg/mL (≈ 22.1 µM). The MIC (Acinetobacter baumannii; Acinetobacter baumannii CDC 284, ESBL/OXA) was 8 µg/mL (≈ 22.1 µM), the MIC (Acinetobacter baumannii; Acinetobacter baumannii CDC 307, OXA) was 8 µg/mL (≈ 22.1 µM) and the MIC (Acinetobacter baumannii; Acinetobacter baumannii CDC 308, ESBL/OXA) was 4 µg/mL (≈ 11.1 µM). For the same compound, the MIC (Acinetobacter baumannii; Acinetobacter baumannii CDC 311, OXA) was 2 µg/mL (≈ 5.53 µM), the MIC (Acinetobacter baumannii; Acinetobacter baumannii CDC 312, OXA) was 2 µg/mL (≈ 5.53 µM) and the MIC (Acinetobacter baumannii; Acinetobacter baumannii CDC 313, ESBL/OXA) was 2 µg/mL (≈ 5.53 µM). The MIC (Acinetobacter baumannii; Acinetobacter baumannii NCTC 13304, OXA) was 1 µg/mL (≈ 2.77 µM).
